Results as given in the NIST ThermoML archive (doi:10.1021/acs.jced.5b00105).
± gives the expanded uncertainty stated by the source.

Test: xn = mol fraction of the nth substance listed
Conditions: for surface tension liquid-gas: Drop volume; for viscosity / mass density: 100 kPa, Liquid; for viscosity: Concentric cylinders viscometry; for mass density: Vibrating tube method

CCCCC1CCCCC1 [butylcyclohexane] + CC(C)CC(C)(C)C
Conditions	mass density, 293.15 K [kg/m3]	mass density, 298.15 K [kg/m3]	surface tension liquid-gas, 293.15 K [mN/m]	surface tension liquid-gas, 298.15 K [mN/m]	viscosity, 293.15 K [mPa·s]	viscosity, 298.15 K [mPa·s]
x1 = 0.0999	704.07 ± 0.19	700.02 ± 0.19	–	–	0.567 ± 0.091	0.537 ± 0.086
x1 = 0.1008	–	–	19.63 ± 0.24	19 ± 0.24	–	–
x1 = 0.2	–	–	20.32 ± 0.24	19.59 ± 0.24	–	–
x1 = 0.2002	715.88 ± 0.18	711.89 ± 0.18	–	–	0.623 ± 0.1	0.588 ± 0.094
x1 = 0.3001	727.35 ± 0.18	723.39 ± 0.18	21.02 ± 0.24	20.24 ± 0.24	0.679 ± 0.11	0.64 ± 0.1
x1 = 0.3996	738.44 ± 0.17	734.52 ± 0.17	–	–	0.744 ± 0.12	0.698 ± 0.11
x1 = 0.3999	–	–	21.75 ± 0.24	20.9 ± 0.24	–	–
x1 = 0.5004	–	–	22.42 ± 0.24	21.56 ± 0.24	–	–
x1 = 0.5005	749.38 ± 0.17	745.49 ± 0.17	–	–	0.816 ± 0.13	0.763 ± 0.12
x1 = 0.5999	–	–	23.17 ± 0.24	22.29 ± 0.24	–	–
x1 = 0.6003	759.9 ± 0.17	–	–	–	0.896 ± 0.14	0.835 ± 0.13
x1 = 0.6994	770.07 ± 0.16	–	–	–	0.981 ± 0.16	0.912 ± 0.15
x1 = 0.6995	–	–	23.97 ± 0.24	23.1 ± 0.24	–	–
x1 = 0.7998	–	–	24.87 ± 0.24	23.95 ± 0.24	–	–
x1 = 0.8	780.14 ± 0.16	–	–	–	1.078 ± 0.17	0.998 ± 0.16
x1 = 0.9	–	–	25.85 ± 0.24	24.93 ± 0.24	–	–
x1 = 0.9001	789.89 ± 0.15	–	–	–	1.184 ± 0.19	1.093 ± 0.17
x1 = 1	799.37 ± 0.15	–	26.81 ± 0.25	25.87 ± 0.24	1.304 ± 0.21	1.199 ± 0.19
